Experimental findings from patent publication US20240246967A1, “AXL COMPOUNDS” (ARCUS BIOSCIENCES, INC., priority 2021, published 2024) are described below.

In this assay the target is T1, human MER (Homo sapiens, UniProt Q12866).
T1 construct: purchased Invitrogen
T1 sequence (Q12866 21-999): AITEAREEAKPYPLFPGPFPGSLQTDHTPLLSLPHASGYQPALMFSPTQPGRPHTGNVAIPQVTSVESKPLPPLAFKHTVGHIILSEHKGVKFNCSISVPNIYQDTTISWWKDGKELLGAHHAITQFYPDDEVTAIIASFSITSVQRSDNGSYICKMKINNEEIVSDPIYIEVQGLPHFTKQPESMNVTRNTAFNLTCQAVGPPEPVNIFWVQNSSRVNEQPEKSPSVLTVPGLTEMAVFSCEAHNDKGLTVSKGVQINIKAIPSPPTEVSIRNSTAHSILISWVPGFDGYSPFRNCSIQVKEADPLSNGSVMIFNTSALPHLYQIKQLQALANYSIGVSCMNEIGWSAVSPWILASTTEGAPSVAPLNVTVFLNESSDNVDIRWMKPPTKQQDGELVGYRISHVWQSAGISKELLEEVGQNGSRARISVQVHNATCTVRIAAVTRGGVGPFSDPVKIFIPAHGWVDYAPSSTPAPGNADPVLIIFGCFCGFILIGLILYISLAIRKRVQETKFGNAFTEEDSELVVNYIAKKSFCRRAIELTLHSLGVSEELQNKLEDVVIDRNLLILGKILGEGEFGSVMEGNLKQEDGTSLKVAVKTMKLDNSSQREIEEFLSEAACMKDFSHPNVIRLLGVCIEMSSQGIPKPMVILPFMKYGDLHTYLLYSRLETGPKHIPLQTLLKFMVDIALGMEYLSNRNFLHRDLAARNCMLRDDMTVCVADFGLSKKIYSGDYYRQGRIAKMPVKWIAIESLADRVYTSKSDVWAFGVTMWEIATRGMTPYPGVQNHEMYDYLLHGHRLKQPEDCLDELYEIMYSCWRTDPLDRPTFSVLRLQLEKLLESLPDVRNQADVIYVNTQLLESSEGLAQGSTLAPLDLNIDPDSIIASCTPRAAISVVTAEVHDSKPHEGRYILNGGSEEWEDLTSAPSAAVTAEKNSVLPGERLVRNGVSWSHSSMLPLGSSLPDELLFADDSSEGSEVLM
As to the kind of experiment: HTRF KinEASE-TK biochemical potency assay, MER. Particulars: 1 nM MER, 700 μM ATP, 800 nM TK Substrate-biotin. In outline:
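Enzyme (final 5 nM AXL; 1 nM TYRO3 or MER) plus compound, 1 h RT → add biotinylated TK substrate (800 nM final) and ATP (700 μM final) → 2 h RT → stop into HTRF detection mix → read 665/620 nm. Activity normalised to DMSO and pre-stopped blanks.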
For orientation: TR-FRET usually uses a lanthanide donor and a delayed reading to cut background.
Consider `CC(C)(C)S(=O)(=O)c1ccc(-c2n[nH]c3ncc(-c4ccc5c(c4)CC[C@@H](N4C6COCC4C6)CC5)cc23)cc1` [Example 124, 6-[(7S)-2-{3-[4-(2-methylpropane-2-sulfonyl)phenyl]-2H-pyrazolo[3,4-b]pyridin-5-yl}-6,7,8,9-tetrahydro-5H-benzo[7]annulen-7-yl]-3-oxa-6-azabicyclo[3.1.1]heptane], for which the IC50 lay within 0.1 to 1 µM.
Consider `COCCOc1ccc(-c2n[nH]c3ncc(-c4ccc5c(c4)CC[C@@H](N4C6COCC4C6)CC5)cc23)cc1` [Example 123, 6-[(7S)-2-{3-[4-(2-methoxyethoxy)phenyl]-2H-pyrazolo[3,4-b]pyridin-5-yl}-6,7,8,9-tetrahydro-5H-benzo[7]annulen-7-yl]-3-oxa-6-azabicyclo[3.1.1]heptane], for which the IC50 is over 1 µM.
The same measure for `C[C@@H]1CCCN1C1(C)CCc2ccc(-c3cnc4[nH]nc(-c5ccc(C(=O)N[C@@H]6CCOC6)cc5)c4c3)cc2CC1` (stereo partly drawn) [Example 99, 4-(5-{7-Methyl-7-[(2R)-2-methylpyrrolidin-1-yl]-6,7,8,9-tetrahydro-5H-benzo[7]annulen-2-yl}-1H-pyrazolo[3,4-b]pyridin-3-yl)-N-[(3R)-oxolan-3-yl]benzamide]: over 1 µM.
Compound `COCCS(=O)(=O)c1ccc(-c2n[nH]c3ncc(-c4ccc5c(c4)CCC(C)(N4CCC[C@H]4C)CC5)cc23)cc1` (stereo partly drawn) [Example 111, (2R)-1-(2-{3-[4-(2-Methoxyethanesulfonyl)phenyl]-1H-pyrazolo[3,4-b]pyridin-5-yl}-7-methyl-6,7,8,9-tetrahydro-5H-benzo[7]annulen-7-yl)-2-methylpyrrolidine] gave an IC50 of 0.1 to 1 µM.
The same measure for `C[C@@H]1CCCN1C1(C)CCc2ccc(-c3cnc4[nH]nc(-c5cnc(C(C)(C)O)c(Cl)c5)c4c3)cc2CC1` (stereo partly drawn) [Example 98, 2-[3-Chloro-5-(5-{7-methyl-7-[(2R)-2-methylpyrrolidin-1-yl]-6,7,8,9-tetrahydro-5H-benzo[7]annulen-2-yl}-1H-pyrazolo[3,4-b]pyridin-3-yl)pyridin-2-yl]propan-2-ol]: 0.1 to 1 µM; for `CC(C)(O)c1ccc(-c2n[nH]c3ncc(-c4ccc5c(c4)CC4CCC(C5)C4N4CCCC4)cc23)cc1Cl` (stereo not shown) [Example 61, 2-(2-Chloro-4-{5-[13-(pyrrolidin-1-yl)tricyclo[8.2.1.0^3,8]trideca-3,5,7-trien-5-yl]-1H-pyrazolo[3,4-b]pyridin-3-yl}phenyl)propan-2-ol]: over 1 µM; for `C[C@@H]1CCCN1C1CCc2ccc(-c3cnc4[nH]nc(-c5ccc(C(C)(C)O)c(Cl)c5)c4c3)cc2CC1` (stereo partly drawn) [Example 35, 2-(2-Chloro-4-(5-(7-((R)-2-methylpyrrolidin-1-yl)-6,7,8,9-tetrahydro-5H-benzo[7]annulen-2-yl)-1H-pyrazolo[3,4-b]pyridin-3-yl)phenyl)propan-2-ol]: 0.1 to 1 µM.
As for `CC(C)(O)c1ccc(-c2n[nH]c3ncc(-c4ccc5c(c4)CCN(C4CCCC4)CC5)cc23)cc1Cl` [Example 12, 2-{2-Chloro-4-[5-(3-cyclopentyl-2,3,4,5-tetrahydro-1H-3-benzazepin-7-yl)-1H-pyrazolo[3,4-b]pyridin-3-yl]phenyl}propan-2-ol], the IC50 is over 1 µM.
Then `O=S(=O)(c1ccc(-c2n[nH]c3ncc(-c4ccc5c(c4)CCN(CC4CCOC4)CC5)cc23)cc1)C1CC1` (stereo not shown) [Example 27, 7-{3-[4-(Cyclopropanesulfonyl)phenyl]-1H-pyrazolo[3,4-b]pyridin-5-yl}-3-[(oxolan-3-yl)methyl]-2,3,4,5-tetrahydro-1H-3-benzazepine], with over 1 µM.
The same measure for `Cc1cc(-c2n[nH]c3ncc(-c4ccc5c(c4)CC[C@@H](N4CCCC4)CC5)cc23)cc(Cl)c1C(N)=O` [Example 50, 2-Chloro-6-methyl-4-{5-[(7S)-7-(pyrrolidin-1-yl)-6,7,8,9-tetrahydro-5H-benzo[7]annulen-2-yl]-1H-pyrazolo[3,4-b]pyridin-3-yl}benzamide]: under 0.1 µM.
Then `Cc1cc(-c2n[nH]c3ncc(-c4ccc5c(c4)CCN(C4CC4)CC5)cc23)ccc1C(=O)N1CCNCC1` [Example 119, 3-Cyclopropyl-7-{3-[3-methyl-4-(piperazine-1-carbonyl)phenyl]-1H-pyrazolo[3,4-b]pyridin-5-yl}-2,3,4,5-tetrahydro-1H-3-benzazepine], with over 1 µM; and `CC(C)(O)c1ccc(-c2n[nH]c3ncc(-c4ccc5c(c4)CCN(C4CCCC4)CC5)cc23)cn1` [Example 10, 2-{5-[5-(3-Cyclopentyl-2,3,4,5-tetrahydro-1H-3-benzazepin-7-yl)-1H-pyrazolo[3,4-b]pyridin-3-yl]pyridin-2-yl}propan-2-ol], with 0.1 to 1 µM; and `C[C@H]1CCCN1C1CCc2ccc(-c3cnc4[nH]nc(-c5ccc(S(=O)(=O)C6CC6)cc5)c4c3)cc2CC1` (stereo partly drawn) [Example 24, 3-(4-(Cyclopropylsulfonyl)phenyl)-5-(7-((S)-2-methylpyrrolidin-1-yl)-6,7,8,9-tetrahydro-5H-benzo[7]annulen-2-yl)-1H-pyrazolo[3,4-b]pyridine], with 0.1 to 1 µM.
`O=S(=O)(c1ccc(-c2n[nH]c3ncc(-c4ccc5c(c4)CCN(C4CCOCC4)CC5)cc23)cc1)C1CC1` [Example 26, 7-{3-[4-(Cyclopropanesulfonyl)phenyl]-1H-pyrazolo[3,4-b]pyridin-5-yl}-3-(oxan-4-yl)-2,3,4,5-tetrahydro-1H-3-benzazepine] gave an IC50 of over 1 µM.
Then `O=C([C@H]1CCCN1)N1CCc2ccc(-c3cnc4[nH]nc(-c5ccc(S(=O)(=O)C6CC6)cc5)c4c3)cc2CC1` [Example 113, 7-{3-[4-(Cyclopropanesulfonyl)phenyl]-1H-pyrazolo[3,4-b]pyridin-5-yl}-3-[(2R)-pyrrolidine-2-carbonyl]-2,3,4,5-tetrahydro-1H-3-benzazepine], with over 1 µM.
Compound `COCCOc1ccc(-c2n[nH]c3ncc(-c4ccc5c(c4)CCC(C)(N4CCC[C@H]4C)CC5)cc23)cc1` (stereo partly drawn) [Example 110, 3-(4-(2-Methoxyethoxy)phenyl)-5-(7-methyl-7-((R)-2-methylpyrrolidin-1-yl)-6,7,8,9-tetrahydro-5H-benzo[7]annulen-2-yl)-1H-pyrazolo[3,4-b]pyridine] yielded an IC50 of 0.1 to 1 µM.
For `CC(C)(O)c1ccc(-c2n[nH]c3ncc(-c4ccc5c(c4)CCC(N4CCC[C@@H]4CO)CC5)cc23)cc1Cl` (stereo partly drawn) [Example 21, 2-[2-Chloro-4-(5-{7-[(2R)-2-(hydroxymethyl)pyrrolidin-1-yl]-6,7,8,9-tetrahydro-5H-benzo[7]annulen-2-yl}-1H-pyrazolo[3,4-b]pyridin-3-yl)phenyl]propan-2-ol], the IC50 lay in the range of 0.1 to 1 µM.
Then `CN(C)C(=O)c1ccc(-c2n[nH]c3ncc(-c4ccc5c(c4)CC[C@@H](N4C6COCC4C6)CC5)cc23)cc1` [Example 125, N,N-Dimethyl-4-{5-[(7S)-7-{3-oxa-6-azabicyclo[3.1.1]heptan-6-yl}-6,7,8,9-tetrahydro-5H-benzo[7]annulen-2-yl]-2H-pyrazolo[3,4-b]pyridin-3-yl}benzamide], with 0.1 to 1 µM; and `CS(=O)(=O)N1CCC(c2n[nH]c3ncc(-c4ccc5c(c4)CCC(N4CCCC4)CC5)cc23)CC1` (stereo not shown) [Example 23, 1-Methanesulfonyl-4-{5-[7-(pyrrolidin-1-yl)-6,7,8,9-tetrahydro-5H-benzo[7]annulen-2-yl]-1H-pyrazolo[3,4-b]pyridin-3-yl}piperidine], with 0.1 to 1 µM; and `C[C@@H]1CCCN1[C@@H]1CCc2cc(-c3cnc4[nH]nc(-c5ccc(S(=O)(=O)C6CC6)cc5)c4c3)cnc2CC1` [Example 101, (2R)-1-(3-{3-[4-(Cyclopropanesulfonyl)phenyl]-1H-pyrazolo[3,4-b]pyridin-5-yl}-5H,6H,7H,8H,9H-cyclohepta[b]pyridin-7-yl)-2-methylpyrrolidine], with over 1 µM.
Then `O=S(=O)(c1ccc(-c2n[nH]c3ncc(-c4ccc5c(c4)CC[C@@H](N4CCCC4)CC5)cc23)cc1)C1CC1` [Example 40, (S)-3-(4-(Cyclopropylsulfonyl)phenyl)-5-(7-(pyrrolidin-1-yl)-6,7,8,9-tetrahydro-5H-benzo[7]annulen-2-yl)-1H-pyrazolo[3,4-b]pyridine], with 0.1 to 1 µM.
The same measure for `C[C@@H]1CCCN1C1CCc2ccc(-c3cnc4[nH]nc(-c5ccc(C(C)(C)O)cn5)c4c3)cc2CC1` (stereo partly drawn) [Example 97, 2-[6-(5-{7-[(2R)-2-Methylpyrrolidin-1-yl]-6,7,8,9-tetrahydro-5H-benzo[7]annulen-2-yl}-1H-pyrazolo[3,4-b]pyridin-3-yl)pyridin-3-yl]propan-2-ol]: over 1 µM.

As a reminder, the IC50 is the concentration at which inhibition is half-maximal. The low end stands for greater potency in that assay, the high end for weaker potency in that assay.
